Values quoted from earlier work as cited in patent publication US20080161337A1 (priority 2007, published 2008).

Tests used:
SIBO [1] = conditions: for clinical efficacy for treating SIBO: antibiotics traditionally recommended for treating SIBO
IBS patients [2] = system: IBS patients
SIBO [3] = conditions: 34 patients with SIBO and functional gastrointestinal symptoms
SIBO [4] = conditions: 21 patients with SIBO
[5] = system: IBS patients with abnormal LBT; conditions: 82 IBS patients with abnormal LBT; 54-day average follow up
IBS patients [6] = conditions: 86 IBS patients; sustained for ten weeks after a ten day course
[7] = system: functional bowel syndrome patients with abnormal LBT; conditions: 20 functional bowel syndrome patients with abnormal LBT; 63-day average follow up

| Compound | clinical efficacy for treating SIBO (SIBO [1]) | results versus placebo (IBS patients [2]; 111 IBS patients randomized to neomycin or placebo) | improvement of symptoms (IBS patients [2]; when the LBT was normalized) | effectiveness against SIBO (SIBO [1]; human, in vivo) | LBT results and functional gastrointestinal symptoms (SIBO [3]) | improvement in functional gastrointestinal symptoms (SIBO [4]) | patients with normalized LBT (SIBO [4]; rifaximin seven days at 1200 mg/day) | combined global improvement rated great and moderate [5] | solubility in water | global IBS symptoms (IBS patients [6]) | combined global improvement rated great and moderate [7] |
| --- | --- | --- | --- | --- | --- | --- | --- | --- | --- | --- | --- |
| neomycin | 25% | significantly better results | 75% |  |  |  |  |  |  |  |  |
| Cc1ncc([N+](=O)[O-])n1CCO [metronidazole] | 5% |  |  |  |  |  |  |  |  |  |  |
| CO[C@H]1/C=C/O[C@@]2(C)Oc3c(C)c(O)c4c(O)c(c5c(nc6cc(C)ccn65)c4c3C2=O)NC(=O)/C(C)=C\C=C\[C@H](C)[C@H](O)[C@@H](C)[C@@H](O)[C@@H](C)[C@H](OC(C)=O)[C@@H]1C [rifaximin] |  |  |  | highly effective against SIBO | improved LBT results and functional gastrointestinal symptoms | greater with rifaximin than chlortetracycline | 70% | 60% | practically insoluble in water | statistically significant improvement | 63% |
